Source: US20250304594A1, “METHYL (R)-2-(FLUOROMETHYL)-5-OXO-4-PHENYL-4,5,6,7-TETRAHYDRO-1H-CYCLOPENTA[B]PYRIDINE-3-CARBOXYLATE AND METHYL (R)-2-(FLUOROMETHYL)-5-OXO-4-PHENYL-1,4,5,7-TETRAHYDROFURO[3,4-B]PYRIDINE-3-CARBOXYLATE AS Cav1,2 ACTIVATORS” (Novartis AG, priority 2020, published 2025)

The compounds below were run against T1, human CaV1.2 (Homo sapiens, UniProt Q13936) (assay: QPatch channel biophysics assay (channel gating, V1/2 of activation, inactivation) in CaV1.2-HEK293(AUX) cells). Settings: Table 9; shift of half-way channel activation voltage V1/2.
T1 construct: expressed in transfected cells; host or cells: Flp-In 293 T-Rex (HEK293), monoclonal CaV1.2-HEK293(AUX) clone 2-19B; doxycycline-induced auxiliary subunits
T1 sequence (Q13936 1-2138 isoform Q13936-23): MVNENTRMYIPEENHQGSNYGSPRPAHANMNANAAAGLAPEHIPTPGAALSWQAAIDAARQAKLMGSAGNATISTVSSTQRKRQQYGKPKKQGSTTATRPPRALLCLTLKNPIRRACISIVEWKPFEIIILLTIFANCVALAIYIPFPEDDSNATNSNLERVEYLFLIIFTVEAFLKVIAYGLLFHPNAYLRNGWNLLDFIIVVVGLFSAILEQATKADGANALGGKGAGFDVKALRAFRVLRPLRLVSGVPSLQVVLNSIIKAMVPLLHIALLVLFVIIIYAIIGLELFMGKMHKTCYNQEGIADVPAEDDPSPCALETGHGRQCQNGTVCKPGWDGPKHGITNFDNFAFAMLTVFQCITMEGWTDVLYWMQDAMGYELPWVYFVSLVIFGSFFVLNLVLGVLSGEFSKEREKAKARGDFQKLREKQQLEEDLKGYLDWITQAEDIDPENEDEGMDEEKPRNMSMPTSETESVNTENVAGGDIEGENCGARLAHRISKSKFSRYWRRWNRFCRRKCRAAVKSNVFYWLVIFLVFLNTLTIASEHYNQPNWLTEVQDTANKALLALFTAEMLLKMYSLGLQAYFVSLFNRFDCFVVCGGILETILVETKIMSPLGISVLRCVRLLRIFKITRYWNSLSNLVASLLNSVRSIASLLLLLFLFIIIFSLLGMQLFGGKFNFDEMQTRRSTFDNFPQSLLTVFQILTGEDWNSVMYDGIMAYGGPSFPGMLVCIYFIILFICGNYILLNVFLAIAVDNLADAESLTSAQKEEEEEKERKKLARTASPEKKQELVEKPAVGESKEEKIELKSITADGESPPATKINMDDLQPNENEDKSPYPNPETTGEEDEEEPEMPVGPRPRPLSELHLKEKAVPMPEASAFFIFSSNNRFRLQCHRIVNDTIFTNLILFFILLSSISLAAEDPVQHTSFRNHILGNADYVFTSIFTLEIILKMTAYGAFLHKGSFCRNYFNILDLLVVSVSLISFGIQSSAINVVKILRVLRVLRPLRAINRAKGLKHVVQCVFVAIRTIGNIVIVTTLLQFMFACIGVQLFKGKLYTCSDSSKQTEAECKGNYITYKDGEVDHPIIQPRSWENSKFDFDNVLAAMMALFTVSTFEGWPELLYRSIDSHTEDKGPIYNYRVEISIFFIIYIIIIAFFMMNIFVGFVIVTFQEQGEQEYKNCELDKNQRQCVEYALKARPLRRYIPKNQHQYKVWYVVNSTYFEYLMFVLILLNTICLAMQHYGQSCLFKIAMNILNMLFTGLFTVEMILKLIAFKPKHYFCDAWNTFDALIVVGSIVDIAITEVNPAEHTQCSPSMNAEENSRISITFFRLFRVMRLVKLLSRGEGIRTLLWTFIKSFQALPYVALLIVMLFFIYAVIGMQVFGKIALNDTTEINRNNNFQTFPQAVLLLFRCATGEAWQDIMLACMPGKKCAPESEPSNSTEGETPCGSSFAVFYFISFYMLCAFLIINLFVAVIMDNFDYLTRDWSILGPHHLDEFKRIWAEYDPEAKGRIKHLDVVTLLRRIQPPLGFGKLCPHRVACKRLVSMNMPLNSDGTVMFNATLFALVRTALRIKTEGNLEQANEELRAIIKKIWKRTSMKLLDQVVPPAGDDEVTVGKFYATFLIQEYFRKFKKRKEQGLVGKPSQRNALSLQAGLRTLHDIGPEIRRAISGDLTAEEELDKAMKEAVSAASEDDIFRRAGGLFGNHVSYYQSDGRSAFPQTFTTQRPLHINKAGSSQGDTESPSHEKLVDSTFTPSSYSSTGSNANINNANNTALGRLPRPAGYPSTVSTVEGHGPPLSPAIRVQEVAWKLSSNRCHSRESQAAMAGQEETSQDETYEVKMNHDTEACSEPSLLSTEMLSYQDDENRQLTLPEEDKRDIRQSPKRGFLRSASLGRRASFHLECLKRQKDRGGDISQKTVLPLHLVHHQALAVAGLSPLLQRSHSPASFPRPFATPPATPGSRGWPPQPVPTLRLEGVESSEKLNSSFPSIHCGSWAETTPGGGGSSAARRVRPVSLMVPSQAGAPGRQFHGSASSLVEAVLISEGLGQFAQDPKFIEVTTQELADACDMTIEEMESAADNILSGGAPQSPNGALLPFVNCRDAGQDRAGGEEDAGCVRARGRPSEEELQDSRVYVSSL
T1 sequence (Q9NY47 19-1001 partner limits assumed): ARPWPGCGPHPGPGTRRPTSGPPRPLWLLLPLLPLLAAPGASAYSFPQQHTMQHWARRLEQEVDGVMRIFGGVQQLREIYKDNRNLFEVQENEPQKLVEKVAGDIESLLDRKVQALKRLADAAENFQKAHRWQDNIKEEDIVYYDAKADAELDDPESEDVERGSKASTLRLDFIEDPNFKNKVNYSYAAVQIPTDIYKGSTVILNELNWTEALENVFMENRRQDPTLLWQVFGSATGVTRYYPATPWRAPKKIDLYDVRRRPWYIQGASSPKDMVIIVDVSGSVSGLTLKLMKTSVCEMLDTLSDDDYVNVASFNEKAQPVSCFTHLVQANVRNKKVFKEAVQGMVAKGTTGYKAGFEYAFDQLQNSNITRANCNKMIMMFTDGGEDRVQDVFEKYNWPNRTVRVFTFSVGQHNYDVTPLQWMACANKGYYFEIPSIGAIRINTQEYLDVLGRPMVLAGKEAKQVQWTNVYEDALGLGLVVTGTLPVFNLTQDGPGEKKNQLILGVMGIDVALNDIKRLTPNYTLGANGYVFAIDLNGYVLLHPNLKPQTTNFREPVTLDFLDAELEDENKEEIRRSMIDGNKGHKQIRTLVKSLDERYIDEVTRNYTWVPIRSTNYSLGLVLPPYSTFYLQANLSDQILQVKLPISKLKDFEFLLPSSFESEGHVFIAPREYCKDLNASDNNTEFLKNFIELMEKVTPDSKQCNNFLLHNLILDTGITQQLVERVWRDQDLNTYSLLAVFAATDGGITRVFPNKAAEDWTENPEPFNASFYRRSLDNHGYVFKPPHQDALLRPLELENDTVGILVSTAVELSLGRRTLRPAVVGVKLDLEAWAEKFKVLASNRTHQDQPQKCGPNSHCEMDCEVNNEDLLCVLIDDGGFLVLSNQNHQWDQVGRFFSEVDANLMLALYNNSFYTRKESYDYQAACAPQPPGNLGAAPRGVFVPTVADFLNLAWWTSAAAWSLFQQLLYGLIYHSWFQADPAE
T1 sequence (Q9NY47 1002-1150 partner limits assumed): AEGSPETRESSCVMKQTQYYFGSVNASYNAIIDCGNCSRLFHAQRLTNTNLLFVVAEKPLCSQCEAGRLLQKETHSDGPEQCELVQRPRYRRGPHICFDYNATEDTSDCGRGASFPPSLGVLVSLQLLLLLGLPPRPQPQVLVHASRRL
T1 sequence (Q08289 whole entry partner): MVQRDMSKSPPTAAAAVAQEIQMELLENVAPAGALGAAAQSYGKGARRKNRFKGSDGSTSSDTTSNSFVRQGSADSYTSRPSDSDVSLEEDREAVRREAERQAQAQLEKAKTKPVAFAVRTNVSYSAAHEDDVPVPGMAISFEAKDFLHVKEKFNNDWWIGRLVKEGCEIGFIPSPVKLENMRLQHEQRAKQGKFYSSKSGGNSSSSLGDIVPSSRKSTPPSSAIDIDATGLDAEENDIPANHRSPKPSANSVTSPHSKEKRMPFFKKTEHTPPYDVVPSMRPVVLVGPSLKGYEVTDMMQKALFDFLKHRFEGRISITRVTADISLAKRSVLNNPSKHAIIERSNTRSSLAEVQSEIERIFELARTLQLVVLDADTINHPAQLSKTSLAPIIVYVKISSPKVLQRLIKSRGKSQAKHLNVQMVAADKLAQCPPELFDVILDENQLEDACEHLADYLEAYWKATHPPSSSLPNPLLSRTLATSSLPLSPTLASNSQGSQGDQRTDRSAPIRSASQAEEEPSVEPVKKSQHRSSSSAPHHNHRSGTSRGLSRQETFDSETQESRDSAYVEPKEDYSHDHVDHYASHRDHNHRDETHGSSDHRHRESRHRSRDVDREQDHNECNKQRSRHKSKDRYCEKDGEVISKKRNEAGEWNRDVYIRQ
Format: cell-based
Source text: The monoclonal CaV1.2-HEK293(AUX) cell line constitutively expresses human CaV1.2 alpha1C (α1C) subunit (CACNA1C) and has doxycycline-inducible expression of the alpha2delta (α2Δ2) auxiliary subunit (CACNA2D2) and beta2 (02) auxiliary subunit (CACNB2). To generate the cell line, expression vectors pcDNA5.0/FRT-TO-CACNA2D2-FCS-P2A-CACNB2 and pCMV6-entry-CACNA1C were established via gene synthesis and cloning. Here, pcDNA5.0/FRT-TO plasmid is from Invitrogen, pCMV6-entry is from Origene, FCS stands for Furin Cleavage Site, P2A is a peptide self-cleavage sequence derived from porcine teschovirus-1, and FRT is the Flippase recognition target site. Next, parental line Flp-In™ 293 T-Rex (Invitrogen) was transfected with pcDNA5.0/FRT-TO-CACNA2D2-FCS-P2A-CACNB2 and Flippase vector pOG44 (Invitrogen) to establish targeted integration of the CACNA2D2-FCS-P2A-CACNB2 expression cassette into the pre-engineered FRT site in Flp-In™ 293 T-Rex. This intermediate cell line was then transfected with pCMV6-entry-CACNA1C to establish stable CACNA1C expression. Clonal isolation was achieved under Neomycin selection. A cell clone (2-19B) with good voltage-dependent Barium current (see electrophysiology methods below) was selected for characterization of CaV1.2 activators.
24 hours prior an electrophysiology experiment, doxycycline (1 μg/ml) was added to the growth medium (Table 6), and 25 μM of verapamil was co-applied to prevent calcium influx triggered cell death. Cell confluency should reach 70%-80% right before the experiment. To harvest cells (from a T175 cm^2 flask as an example), growth media were removed completely, and the cells were rinsed with 10 mL of D-PBS. D-PBS was aspirated, and 10 mL of Detachin (Genlantis) was added and the plate was placed in a 37° C. incubator for 10 minutes. Detached cells were placed into a 15 mL conical tube and spun at 1000 rpm for 2 minutes. Supernatant was removed, and cells were re-suspended in QPatch complete media (Table 7) to desired cell density of 1.5-3 million cells per QPatch run. Each experimental run uses 1.5 mL of cells.
The cells suspension was taken to the Sophion QPatch platform that uses whole-cell voltage clamp to measure barium currents conducted through CaV1.2 on single-hole QPlates. Extracellular and intracellular patch clamp solutions are described in Tables 7 and 8, respectively. A dose-response assay protocol was used to determine the maximal fold change of peak inward current (Emax) and potency (EC50) of each compound. The protocol had eight liquid periods. The first liquid period was to stabilize current amplitude, which was monitored using repetitive 200-ms voltage pulses stepping from −80 mV to 0 mV. The second liquid period was to determine baseline current amplitude in the presence of vehicle control, using a single 20-ms voltage pulse stepping from −80 mV to 0 mV. The third through eighth liquid periods were used to ascertain a 6-dose response to compound treatments, also using single 20-ms voltage pulses stepping from −80 mV to 0 mV. The EC50 was generated using the following equation Iconcentration=Ibase+(Ifull−Ibase)*c^n/(XC50^n+c^n), where c is the concentration and n is the Hill coefficient constant. Ifull is the maximal current achievable, and Ibase is 0. A channel biophysics assay protocol was used to determine channel gating properties including current-voltage relationship (IV curves), half-way channel activation voltage (V1/2), rate of channel inactivation (tau), and amplitude of tail current. Among these, V1/2 was derived from fitting equation G(V)=Gvmin+(Gvmax−Gvmin)/(1+exp(−(V−V½)/Vslope)), where G stands for conductance, Gvmin equals 0, Gvmax is the maximal conductance, and Vslope is a slope factor. G(V) was pre-calculated from equation G(V)=I(V)/(V−0.06), for each experimentally applied depolarization potential (V) and the corresponding current amplitude (I(V)), and 0.06 in the equation was the experimentally determined reversal potential in volts. […]
With `COC(=O)C1=C(CF)NC2=C(C(=O)OC2)[C@H]1c1cccc(F)c1[C@H]1CC1(F)F` (single isomer, unassigned) [Example 1, methyl (R)-4-(2-((R or S)-2,2-difluorocyclopropyl)-3-fluorophenyl)-2-(fluoromethyl)-5-oxo-1,4,5,7-tetrahydrofuro[3,4-b]pyridine-3-carboxylate] the “Biophysics voltage shift (mV)” value was −5.9 mV. With `COC(=O)C1=C(CF)NC2=C(C(=O)OC2)[C@H]1c1cccc(F)c1C1CC1` (single isomer, unassigned) [Example 2] the “Biophysics voltage shift (mV)” value was −4.5 mV. With `COC(=O)C1=C(CF)NC2=C(C(=O)OC2)[C@H]1c1cc(F)cc(F)c1[C@H]1CC1(F)F` (single isomer, unassigned) [Example 3, Methyl (R)-4-(2-((R or S)-2,2-difluorocyclopropyl)-3,5-difluorophenyl)-2-(fluoromethyl)-5-oxo-1,4,5,7-tetrahydrofuro[3,4-b]pyridine-3-carboxylate] the “Biophysics voltage shift (mV)” value was 0.1 mV. In the case of `COC(=O)C1=C(CF)NC2=C(C(=O)OC2)[C@H]1c1cc(F)cc(F)c1[C@H]1CC1(F)F` (single isomer, unassigned) [Example 4, Methyl (R)-4-(2-((R or S)-2,2-difluorocyclopropyl)-3,5-difluorophenyl)-2-(fluoromethyl)-5-oxo-1,4,5,7-tetrahydrofuro[3,4-b]pyridine-3-carboxylate], the “Biophysics voltage shift (mV)” value is reported as −4.4 mV. `COC(=O)C1=C(CF)NC2=C(C(=O)OC2)[C@H]1c1cc(F)cc(F)c1[C@H](C)F` (single isomer, unassigned) [Example 5, methyl (R)-4-(3,5-difluoro-2-((R or S)-1-fluoroethyl)phenyl)-2-(fluoromethyl)-5-oxo-1,4,5,7-tetrahydrofuro[3,4-b]pyridine-3-carboxylate] was tested, and the “Biophysics voltage shift (mV)” value was −4.6 mV. `COC(=O)C1=C(CF)NC2=C(C(=O)OC2)[C@H]1c1cccc(F)c1[C@H](F)CF` (single isomer, unassigned) [Example 6] was tested, and the “Biophysics voltage shift (mV)” value was −6.3 mV. `COC(=O)C1=C(CF)NC2=C(C(=O)CC2)[C@H]1c1cccc(F)c1[C@@H](F)CF` (single isomer, unassigned) [Example 7, methyl (R)-4-(2-((R or S)-1,2-difluoroethyl)-3-fluorophenyl)-2-(fluoromethyl)-5-oxo-4,5,6,7-tetrahydro-1H-cyclopenta[b]pyridine-3-carboxylate] was tested, and the “Biophysics voltage shift (mV)” value was −6.3 mV. With `COC(=O)C1=C(CF)NC2=C(C(=O)OC2)[C@H]1c1cccc(F)c1[C@@H](C)F` (single isomer, unassigned) [Example 8] the “Biophysics voltage shift (mV)” value was −5.4 mV. `COC(=O)C1=C(CF)NC2=C(C(=O)OC2)[C@H]1c1ccccc1OC(F)F` (single isomer, unassigned) [Example 9] was tested, and the “Biophysics voltage shift (mV)” value was −4.5 mV. For `COC(=O)C1=C(CF)NC2=C(C(=O)OC2)[C@H]1c1cc(F)cc(F)c1C(F)(F)F` (single isomer, unassigned) [Example 10], the “Biophysics voltage shift (mV)” value was −2.3 mV. For `COC(=O)C1=C(CF)NC2=C(C(=O)OC2)[C@H]1c1cccc(F)c1CC(F)F` (single isomer, unassigned) [Example 11], the “Biophysics voltage shift (mV)” value was −5.0 mV. `COC(=O)C1=C(CF)NC2=C(C(=O)OC2)[C@H]1c1cc(F)cc(F)c1C1CC1` (single isomer, unassigned) [Example 13] was tested, and the “Biophysics voltage shift (mV)” value was −0.7 mV. `COC(=O)C1=C(CF)NC2=C(C(=O)OC2)[C@H]1c1cccc(F)c1C(F)F` (single isomer, unassigned) [Example 15] was tested, and the “Biophysics voltage shift (mV)” value was −5.7 mV. `COC(=O)C1=C(CF)NC2=C(C(=O)OC2)[C@H]1c1cc(F)cc(F)c1[C@H](F)CF` (single isomer, unassigned) [Example 16, methyl (R)-4-(2-((R or S)-1,2-difluoroethyl)-3,5-difluorophenyl)-2-(fluoromethyl)-5-oxo-1,4,5,7-tetrahydrofuro[3,4-b]pyridine-3-carboxylate] was tested, and the “Biophysics voltage shift (mV)” value was −5.8 mV. For `COC(=O)C1=C(CF)NC2=C(C(=O)OC2)[C@H]1c1cccc(F)c1C(F)(F)F` (single isomer, unassigned) [Example 17], the “Biophysics voltage shift (mV)” value was −6.8 mV. With `COC(=O)C1=C(CF)NC2=C(C(=O)OC2)[C@H]1c1cc(F)cc(F)c1C(F)F` (single isomer, unassigned) [Example 18] the “Biophysics voltage shift (mV)” value was −5.2 mV. In the case of `COC(=O)C1=C(CF)NC2=C(C(=O)OC2)[C@H]1c1cc(F)ccc1C(F)(F)F` (single isomer, unassigned) [Example 23], the “Biophysics voltage shift (mV)” value is reported as −6.2 mV. With `COC(=O)C1=C(CF)NC2=C(C(=O)CC2)[C@H]1c1cccc(F)c1C1CC1` (single isomer, unassigned) [Example 28] the “Biophysics voltage shift (mV)” value was −7.2 mV.
